The results in this text go back to US20230212159A1, “Process for the Production of Ferroportin Inhibitors” (Vifor (International) AG, priority 2020, published 2023).

The assay concerns the target T1, human Fpn (Homo sapiens, UniProt Q9NP59).
T1 construct: FLAG (C); made in house; host or cells: Pichia pastoris
T1 sequence (Q9NP59 1-571): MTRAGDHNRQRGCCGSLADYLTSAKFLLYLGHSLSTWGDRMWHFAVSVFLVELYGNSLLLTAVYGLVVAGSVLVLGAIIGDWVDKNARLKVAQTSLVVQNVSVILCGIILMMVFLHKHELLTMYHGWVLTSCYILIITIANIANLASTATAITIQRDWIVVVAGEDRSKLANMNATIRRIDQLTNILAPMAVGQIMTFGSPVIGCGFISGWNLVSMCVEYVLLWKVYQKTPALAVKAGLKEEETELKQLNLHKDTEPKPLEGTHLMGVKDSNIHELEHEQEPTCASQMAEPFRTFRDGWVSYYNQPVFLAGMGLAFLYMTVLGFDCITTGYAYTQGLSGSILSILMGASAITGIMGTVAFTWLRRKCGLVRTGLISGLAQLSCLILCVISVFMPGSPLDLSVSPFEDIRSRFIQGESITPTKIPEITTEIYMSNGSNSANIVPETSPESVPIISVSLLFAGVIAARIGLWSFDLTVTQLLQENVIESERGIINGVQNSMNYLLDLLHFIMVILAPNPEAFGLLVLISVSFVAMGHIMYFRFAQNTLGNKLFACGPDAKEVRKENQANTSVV
Nature of the assay: Biophysical ferroportin-hepcidin binding assay (fluorescence polarization). To be noted: TMR-hepcidin, tested as 3HCl-salts, n=2, read-out: Biophysical Ferroportin-Hepcidin Binding (FP) IC50. As for the experimental part: This biophysical assay was developed to confirm inhibition of hepcidin binding to ferroportin (Fpn) more directly. Incubation of TMR-hepcidin with purified human Fpn isolated from Pichia pastoris yeast cells expressing human Fpn with a C-terminal FLAG affinity tag (Bonaccorsi di Patti, 2014) leads to increased fluorescence polarization (FP) of the TMR-hepcidin ligand.
A mixture of […] human Fpn and 30 nM TMR-hepcidin in FP assay buffer containing 50 mM Tris-HCI pH 7.3, 200 mM NaCI, 0.02% DDM, 0.1% BSA was plated into a 384 well black low volume round bottom plate (Corning, Cat. 3677) at […] per well. […] of serial dilutions of test compounds were added in duplicates to reach final Fpn and TMR-hepcidin concentrations of […] and 20 nM, respectively. Plates were incubated for 90 minutes at room temperature and parallel (S) and perpendicular (P) fluorescence was measured in a Synergy H1 fluorescence reader (BioTek). FP values were calculated in mP according to the following formula.
IC50 values were determined with the calculated mP values as described for the hepcidin internalization assay and are listed in Table 2.
On the technique in general: Fluorescence polarisation rises when a labelled molecule tumbles more slowly, as on binding a larger partner.

`O=C(NCc1ncccc1Br)c1coc(CCNCCc2nc3ccccc3[nH]2)n1` [Compound (II′)]: the IC50 (usually the concentration that inhibits the measured activity by half) was found to be 28 nM.

`O=C(NCc1ncccc1F)c1coc(CCNCCc2nc3ccccc3[nH]2)n1` [Compound (II)]: the IC50 turned out to be 28 nM.
